Data reported in patent US12077503B2, “Substituted cyclic amides and their use as herbicides” (FMC CORPORATION, priority 2015, dated 2024).

What was measured:
Experiment in all cases: Test C preemergence
Type in all cases: in vivo
[1] = test system: ryegrass, Italian (Italian ryegrass, Lolium multiflorum); conditions: for Plant response rating (scale of 0 to 100), Ryegrass, Italian: 0 is no effect, 100 is complete control; for Plant response rating, Ryegrass, Italian: scale 0 to 100, 0 no effect, 100 complete control
In short: (§1)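 Preemergence: sow in loam-sand soil and treat. Postemergence: grow in peat-moss/vermiculite medium to 2–18 cm (1–4 leaves) and spray. Compound in non-phytotoxic solvent with surfactant; keep in greenhouse 13–15 d; score visually against controls, 0 (none) to 100 (full control).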

[2] = test system: waterhemp (common waterhemp, Amaranthus rudis); conditions: for Plant response rating (scale of 0 to 100), Waterhemp: 0 is no effect, 100 is complete control; for Plant response rating, Waterhemp: scale 0 to 100, 0 no effect, 100 complete control
In short: as §1

[3] = test system: blackgrass (Alopecurus myosuroides); conditions: for Plant response rating (scale of 0 to 100), Blackgrass: 0 is no effect, 100 is complete control; for Plant response rating, Blackgrass: scale 0 to 100, 0 no effect, 100 complete control
In short: as §1

[4] = test system: Galium (catchweed bedstraw, Galium aparine); conditions: for Plant response rating (scale of 0 to 100), Galium: 0 is no effect, 100 is complete control; for Plant response rating, Galium: scale 0 to 100, 0 no effect, 100 complete control
In short: as §1

[5] = test system: foxtail, giant (giant foxtail, Setaria faberii); conditions: for Plant response rating (scale of 0 to 100), Foxtail, Giant: 0 is no effect, 100 is complete control; for Plant response rating, Foxtail, Giant: scale 0 to 100, 0 no effect, 100 complete control
In short: as §1

[6] = test system: pigweed (Amaranthus retroflexus); conditions: for Plant response rating (scale of 0 to 100), Pigweed: 0 is no effect, 100 is complete control; for Plant response rating, Pigweed: scale 0 to 100, 0 no effect, 100 complete control
In short: as §1

[7] = test system: nutsedge, yellow (yellow nutsedge, Cyperus esculentus); conditions: for Plant response rating (scale of 0 to 100), Nutsedge, Yellow: 0 is no effect, 100 is complete control; for Plant response rating, Nutsedge, Yellow: scale 0 to 100, 0 no effect, 100 complete control
In short: as §1

soybean (Glycine max) = conditions: for Plant response rating (scale of 0 to 100), Soybean: 0 is no effect, 100 is complete control; for Plant response rating, Soybean: scale 0 to 100, 0 no effect, 100 complete control
In short: as §1

[8] = test system: ragweed (common ragweed, Ambrosia elatior); conditions: for Plant response rating (scale of 0 to 100), Ragweed: 0 is no effect, 100 is complete control; for Plant response rating, Ragweed: scale 0 to 100, 0 no effect, 100 complete control
In short: as §1

[9] = test system: morningglory (Ipomoea coccinea); conditions: for Plant response rating (scale of 0 to 100), Morningglory: 0 is no effect, 100 is complete control; for Plant response rating, Morningglory: scale 0 to 100, 0 no effect, 100 complete control
In short: as §1

[10] = test system: velvetleaf (Abutilon theophrasti); conditions: for Plant response rating (scale of 0 to 100), Velvetleaf: 0 is no effect, 100 is complete control; for Plant response rating, Velvetleaf: scale 0 to 100, 0 no effect, 100 complete control
In short: as §1

[11] = test system: crabgrass, large (large crabgrass, Digitaria sanguinalis); conditions: for Plant response rating (scale of 0 to 100), Crabgrass, Large: 0 is no effect, 100 is complete control; for Plant response rating, Crabgrass, Large: scale 0 to 100, 0 no effect, 100 complete control
In short: as §1

corn (Zea mays) = conditions: for Plant response rating (scale of 0 to 100), Corn: 0 is no effect, 100 is complete control; for Plant response rating, Corn: scale 0 to 100, 0 no effect, 100 complete control
In short: as §1

[12] = test system: wheat (winter wheat, Triticum aestivum); conditions: for Plant response rating (scale of 0 to 100), Wheat: 0 is no effect, 100 is complete control; for Plant response rating, Wheat: scale 0 to 100, 0 no effect, 100 complete control
In short: as §1

[13] = test system: oilseed rape (Brassica napus); conditions: for Plant response rating (scale of 0 to 100), Oilseed Rape: 0 is no effect, 100 is complete control; for Plant response rating, Oilseed Rape: scale 0 to 100, 0 no effect, 100 complete control
In short: as §1

[14] = test system: barnyardgrass (Echinochloa crus-galli); conditions: for Plant response rating (scale of 0 to 100), Barnyardgrass: 0 is no effect, 100 is complete control; for Plant response rating, Barnyardgrass: scale 0 to 100, 0 no effect, 100 complete control
In short: as §1

Compound: CN1CC(c2ccc(C(C)(F)F)cc2)C(C(=O)Nc2ccccc2F)C1=O (stereo not shown) [Compound 691]
- Plant response rating (scale of 0 to 100), Ryegrass, Italian ([1]; 16 g ai/ha): 0
- Plant response rating (scale of 0 to 100), Ryegrass, Italian ([1]; 31 g ai/ha): 0
- Plant response rating, Ryegrass, Italian ([1]; 62 g ai/ha): 35
- Plant response rating, Ryegrass, Italian ([1]; 125 g ai/ha): 55
- Plant response rating (scale of 0 to 100), Waterhemp ([2]; 16 g ai/ha): 85
- Plant response rating (scale of 0 to 100), Waterhemp ([2]; 31 g ai/ha): 85
- Plant response rating, Waterhemp ([2]; 62 g ai/ha): 95
- Plant response rating, Waterhemp ([2]; 125 g ai/ha): 95
- Plant response rating (scale of 0 to 100), Blackgrass ([3]; 16 g ai/ha): 0
- Plant response rating (scale of 0 to 100), Blackgrass ([3]; 31 g ai/ha): 0
- Plant response rating, Blackgrass ([3]; 62 g ai/ha): 5
- Plant response rating, Blackgrass ([3]; 125 g ai/ha): 75
- Plant response rating (scale of 0 to 100), Galium ([4]; 16 g ai/ha): 100
- Plant response rating (scale of 0 to 100), Galium ([4]; 31 g ai/ha): 100
- Plant response rating, Galium ([4]; 62 g ai/ha): 95
- Plant response rating, Galium ([4]; 125 g ai/ha): 95
- Plant response rating (scale of 0 to 100), Foxtail, Giant ([5]; 16 g ai/ha): 95
- Plant response rating (scale of 0 to 100), Foxtail, Giant ([5]; 31 g ai/ha): 95
- Plant response rating, Foxtail, Giant ([5]; 62 g ai/ha): 98
- Plant response rating, Foxtail, Giant ([5]; 125 g ai/ha): 98
- Plant response rating (scale of 0 to 100), Pigweed ([6]; 16 g ai/ha): 35
- Plant response rating (scale of 0 to 100), Pigweed ([6]; 31 g ai/ha): 85
- Plant response rating, Pigweed ([6]; 62 g ai/ha): 90
- Plant response rating, Pigweed ([6]; 125 g ai/ha): 100
- Plant response rating (scale of 0 to 100), Nutsedge, Yellow ([7]; 16 g ai/ha): 0
- Plant response rating (scale of 0 to 100), Nutsedge, Yellow ([7]; 31 g ai/ha): 0
- Plant response rating, Nutsedge, Yellow ([7]; 62 g ai/ha): 0
- Plant response rating, Nutsedge, Yellow ([7]; 125 g ai/ha): 20
- Plant response rating (scale of 0 to 100), Soybean (soybean (Glycine max); 16 g ai/ha): 0
- Plant response rating (scale of 0 to 100), Soybean (soybean (Glycine max); 31 g ai/ha): 0
- Plant response rating, Soybean (soybean (Glycine max); 62 g ai/ha): 15
- Plant response rating, Soybean (soybean (Glycine max); 125 g ai/ha): 15
- Plant response rating (scale of 0 to 100), Ragweed ([8]; 16 g ai/ha): 0
- Plant response rating (scale of 0 to 100), Ragweed ([8]; 31 g ai/ha): 100
- Plant response rating, Ragweed ([8]; 62 g ai/ha): 70
- Plant response rating, Ragweed ([8]; 125 g ai/ha): 85
- Plant response rating (scale of 0 to 100), Morningglory ([9]; 16 g ai/ha): 0
- Plant response rating (scale of 0 to 100), Morningglory ([9]; 31 g ai/ha): 30
- Plant response rating, Morningglory ([9]; 62 g ai/ha): 20
- Plant response rating, Morningglory ([9]; 125 g ai/ha): 40
- Plant response rating (scale of 0 to 100), Velvetleaf ([10]; 16 g ai/ha): 10
- Plant response rating (scale of 0 to 100), Velvetleaf ([10]; 31 g ai/ha): 25
- Plant response rating, Velvetleaf ([10]; 62 g ai/ha): 40
- Plant response rating, Velvetleaf ([10]; 125 g ai/ha): 50
- Plant response rating (scale of 0 to 100), Crabgrass, Large ([11]; 16 g ai/ha): 98
- Plant response rating (scale of 0 to 100), Crabgrass, Large ([11]; 31 g ai/ha): 100
- Plant response rating, Crabgrass, Large ([11]; 62 g ai/ha): 100
- Plant response rating, Crabgrass, Large ([11]; 125 g ai/ha): 100
- Plant response rating (scale of 0 to 100), Corn (corn (Zea mays); 16 g ai/ha): 0
- Plant response rating (scale of 0 to 100), Corn (corn (Zea mays); 31 g ai/ha): 40
- Plant response rating, Corn (corn (Zea mays); 62 g ai/ha): 55
- Plant response rating, Corn (corn (Zea mays); 125 g ai/ha): 65
- Plant response rating (scale of 0 to 100), Wheat ([12]; 16 g ai/ha): 10
- Plant response rating (scale of 0 to 100), Wheat ([12]; 31 g ai/ha): 10
- Plant response rating, Wheat ([12]; 62 g ai/ha): 60
- Plant response rating, Wheat ([12]; 125 g ai/ha): 80
- Plant response rating (scale of 0 to 100), Oilseed Rape ([13]; 16 g ai/ha): 0
- Plant response rating (scale of 0 to 100), Oilseed Rape ([13]; 31 g ai/ha): 35
- Plant response rating, Oilseed Rape ([13]; 62 g ai/ha): 50
- Plant response rating, Oilseed Rape ([13]; 125 g ai/ha): 80
- Plant response rating (scale of 0 to 100), Barnyardgrass ([14]; 16 g ai/ha): 90
- Plant response rating (scale of 0 to 100), Barnyardgrass ([14]; 31 g ai/ha): 90
- Plant response rating, Barnyardgrass ([14]; 62 g ai/ha): 98
- Plant response rating, Barnyardgrass ([14]; 125 g ai/ha): 100
